Reference: ChEMBL document CHEMBL4411309, “Discovery of 2-substituted-N-(3-(3,4-dihydroisoquinolin-2(1H)-yl)-2-hydroxypropyl)-1,2,3,4-tetrahydroisoquinoline-6-carboxamide as potent and selective protein arginine methyltransferases 5 inhibitors: Design, synthesis and biological evaluation” (Eur J Med Chem, 2019)

Legend:
[1] = Cmax in Sprague-Dawley rat at 10 mg/kg, po administered via gavage by LC-MS/MS analysis; assay type: ADME, organism-based; set-up: dose 10 mg/kg, route oral; conditions: in vivo
MV4-11 [2] = test: Antitumor activity against human MV4-11 cells xenografted in Balb/c nude mouse assessed as tumor growth inhibition at 100 mg/kg, po administered once daily for 30 days relative to control; assay type: functional; conditions: MV4-11, po, 720 h, read-out: TGI
[3] = Elimination half life in Sprague-Dawley rat at 10 mg/kg, po administered via gavage by LC-MS/MS analysis; assay type: ADME, organism-based; conditions: in vivo, read-out: beta t1/2 (converted)
[4] = Tmax in Sprague-Dawley rat at 10 mg/kg, po administered via gavage by LC-MS/MS analysis; assay type: ADME, organism-based; conditions: in vivo
[5] = Aqueous solubility of the compound; assay type: physicochemical; conditions: buffer
[6] = AUC in Sprague-Dawley rat at 10 mg/kg, po administered via gavage by LC-MS/MS analysis; assay type: ADME, organism-based; conditions: in vivo
PRMT5/MEP50 complex = PRMT5/MEP50 complex (Homo sapiens, UniProt O14744); test: Inhibition of recombinant human N-terminal FLAG-tagged PRMT5 (2 to end residues)/human N-terminal His-tagged MEP50 (2 to end residues) expressed in HEK293F cells using H4 peptide as substrate preincubated for 15 mins followed by substrate and [3H]SAM addition and measured after 1 hr by scintillation counting method
[7] = biological target: Protein arginine N-methyltransferase 3 (Homo sapiens, UniProt O60678); test: Inhibition of human N-terminal GST-tagged PRMT3 (2 to end residues) expressed in Escherichia coli preincubated for 15 mins followed by substrate addition and measured after 1 hr by Alphalisa assay
[8] = biological target: T1, Protein arginine N-methyltransferase 7 (Homo sapiens, UniProt Q9NVM4); test: Inhibition of recombinant full length human N-terminal FLAG-tagged PRMT7 expressed in Sf9 insect cells preincubated for 15 mins followed by substrate and [3H]SAM addition and measured after 240 mins by microbeta method
T1 sequence (Q9NVM4 whole entry): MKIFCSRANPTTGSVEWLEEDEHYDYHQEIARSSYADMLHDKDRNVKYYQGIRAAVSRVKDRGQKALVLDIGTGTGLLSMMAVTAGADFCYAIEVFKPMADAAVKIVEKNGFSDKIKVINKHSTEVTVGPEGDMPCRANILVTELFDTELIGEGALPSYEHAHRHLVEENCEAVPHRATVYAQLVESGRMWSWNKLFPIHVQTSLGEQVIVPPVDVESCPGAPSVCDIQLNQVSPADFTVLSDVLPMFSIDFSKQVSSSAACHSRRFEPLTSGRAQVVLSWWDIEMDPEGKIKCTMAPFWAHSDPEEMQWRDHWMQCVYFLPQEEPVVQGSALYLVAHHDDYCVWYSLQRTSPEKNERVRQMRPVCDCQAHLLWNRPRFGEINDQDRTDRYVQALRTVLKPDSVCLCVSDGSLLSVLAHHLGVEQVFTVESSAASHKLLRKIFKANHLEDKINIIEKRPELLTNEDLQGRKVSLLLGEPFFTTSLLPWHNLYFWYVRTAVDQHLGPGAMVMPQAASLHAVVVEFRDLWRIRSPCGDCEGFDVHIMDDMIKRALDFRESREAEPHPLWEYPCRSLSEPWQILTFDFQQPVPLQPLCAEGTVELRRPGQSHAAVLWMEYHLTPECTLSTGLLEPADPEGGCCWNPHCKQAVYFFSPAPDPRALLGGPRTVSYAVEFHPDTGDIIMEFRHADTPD

[9] = biological target: Protein arginine N-methyltransferase 6 (Homo sapiens, UniProt Q96LA8); test: Inhibition of human N-terminal His-tagged PRMT6 (2 to 375 residues) expressed in Escherichia coli preincubated for 15 mins followed by substrate addition and measured after 1 hr by Alphalisa assay
[10] = biological target: T2, Histone-arginine methyltransferase CARM1 (Homo sapiens, UniProt Q86X55); test: Inhibition of human N-terminal FLAG-tagged PRMT4 (2 to end residues) expressed in FreeStyle 293-F cells preincubated for 15 mins followed by substrate addition and measured after 1 hr by Alphalisa assay; assay type: cell-based
T2 sequence (Q86X55 whole entry): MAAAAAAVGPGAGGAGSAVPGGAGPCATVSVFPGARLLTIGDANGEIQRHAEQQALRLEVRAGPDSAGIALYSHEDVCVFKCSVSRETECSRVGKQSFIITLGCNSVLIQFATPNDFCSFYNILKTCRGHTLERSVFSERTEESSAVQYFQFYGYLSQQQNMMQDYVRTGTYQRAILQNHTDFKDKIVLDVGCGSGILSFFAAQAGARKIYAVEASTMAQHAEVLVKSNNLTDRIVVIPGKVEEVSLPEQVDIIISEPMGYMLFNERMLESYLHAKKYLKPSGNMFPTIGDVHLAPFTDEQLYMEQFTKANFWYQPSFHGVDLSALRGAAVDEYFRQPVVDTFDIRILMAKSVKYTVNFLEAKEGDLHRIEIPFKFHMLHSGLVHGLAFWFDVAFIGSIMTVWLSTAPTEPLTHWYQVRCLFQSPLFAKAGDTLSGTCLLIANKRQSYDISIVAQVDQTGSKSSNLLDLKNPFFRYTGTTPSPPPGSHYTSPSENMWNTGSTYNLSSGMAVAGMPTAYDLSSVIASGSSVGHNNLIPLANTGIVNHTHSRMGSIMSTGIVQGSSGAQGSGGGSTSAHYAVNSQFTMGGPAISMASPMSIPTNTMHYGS

MV4-11 [11] = test: Antiproliferative activity against human MV4-11 cells supplemented with fresh medium containing compound every 4 days measured on day 12 by Celltiter-glo luminescent cell viability assay; assay type: functional
[12] = biological target: Protein arginine N-methyltransferase 1 (Homo sapiens, UniProt Q99873); test: Inhibition of human N-terminal GST-tagged PRMT1 (2 to end residues) expressed in baculovirus infected Sf9 insect cells preincubated for 15 mins followed by substrate and [3H]SAM addition and measured after 1 hr by microbeta method
MV4-11 [13] = test: Antiproliferative activity against human MV4-11 cells supplemented with fresh medium containing compound every 4 days measured on day 8 by Celltiter-glo luminescent cell viability assay; assay type: functional
[14] = biological target: Protein arginine N-methyltransferase 8 (Homo sapiens, UniProt Q9NR22); test: Inhibition of human N-terminal His/FLAG-tagged PRMT8 (61 to 394 residues) expressed in baculovirus infected Sf9 insect cells preincubated for 15 mins followed by substrate addition and measured after 1 hr by Alphalisa assay
Protein arginine N-methyltransferase 8, sequence (Q9NR22 whole entry, the tested form may be a part): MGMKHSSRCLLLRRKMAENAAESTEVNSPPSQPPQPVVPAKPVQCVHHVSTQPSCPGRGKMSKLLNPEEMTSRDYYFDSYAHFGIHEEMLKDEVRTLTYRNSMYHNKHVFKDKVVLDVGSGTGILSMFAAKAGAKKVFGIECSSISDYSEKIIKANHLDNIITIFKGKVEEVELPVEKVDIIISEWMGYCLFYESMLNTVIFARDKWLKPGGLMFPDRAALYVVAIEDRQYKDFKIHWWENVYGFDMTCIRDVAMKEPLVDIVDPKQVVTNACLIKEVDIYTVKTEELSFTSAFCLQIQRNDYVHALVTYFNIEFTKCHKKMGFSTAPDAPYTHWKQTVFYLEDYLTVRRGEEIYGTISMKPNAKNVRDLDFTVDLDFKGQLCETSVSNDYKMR

Protein arginine N-methyltransferase 3, sequence (O60678 whole entry): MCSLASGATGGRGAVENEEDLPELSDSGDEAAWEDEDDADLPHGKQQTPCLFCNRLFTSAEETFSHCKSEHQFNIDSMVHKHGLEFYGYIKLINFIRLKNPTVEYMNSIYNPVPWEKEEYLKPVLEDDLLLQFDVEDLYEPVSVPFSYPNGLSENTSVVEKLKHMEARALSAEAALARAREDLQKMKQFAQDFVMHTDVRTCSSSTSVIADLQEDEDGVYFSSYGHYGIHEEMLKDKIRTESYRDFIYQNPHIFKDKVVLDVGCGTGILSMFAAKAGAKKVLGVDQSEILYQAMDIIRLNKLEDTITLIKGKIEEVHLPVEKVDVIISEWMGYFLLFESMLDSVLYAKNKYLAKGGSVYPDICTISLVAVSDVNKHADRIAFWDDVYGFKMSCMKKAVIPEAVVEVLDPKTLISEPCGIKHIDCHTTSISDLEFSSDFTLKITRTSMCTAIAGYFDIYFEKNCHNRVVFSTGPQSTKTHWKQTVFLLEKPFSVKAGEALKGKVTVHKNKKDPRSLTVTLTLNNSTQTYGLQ
Protein arginine N-methyltransferase 1, sequence (Q99873 whole entry): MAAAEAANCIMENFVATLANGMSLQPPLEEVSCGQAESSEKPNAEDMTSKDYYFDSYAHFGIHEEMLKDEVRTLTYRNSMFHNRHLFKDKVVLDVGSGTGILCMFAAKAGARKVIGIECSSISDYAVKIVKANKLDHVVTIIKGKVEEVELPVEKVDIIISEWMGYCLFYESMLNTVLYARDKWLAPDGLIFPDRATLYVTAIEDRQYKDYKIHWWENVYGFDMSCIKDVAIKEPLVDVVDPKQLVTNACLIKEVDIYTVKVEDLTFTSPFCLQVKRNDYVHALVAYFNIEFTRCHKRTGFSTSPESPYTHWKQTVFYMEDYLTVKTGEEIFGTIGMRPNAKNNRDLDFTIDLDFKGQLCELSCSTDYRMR
PRMT5/MEP50 complex, sequence (O14744 whole entry): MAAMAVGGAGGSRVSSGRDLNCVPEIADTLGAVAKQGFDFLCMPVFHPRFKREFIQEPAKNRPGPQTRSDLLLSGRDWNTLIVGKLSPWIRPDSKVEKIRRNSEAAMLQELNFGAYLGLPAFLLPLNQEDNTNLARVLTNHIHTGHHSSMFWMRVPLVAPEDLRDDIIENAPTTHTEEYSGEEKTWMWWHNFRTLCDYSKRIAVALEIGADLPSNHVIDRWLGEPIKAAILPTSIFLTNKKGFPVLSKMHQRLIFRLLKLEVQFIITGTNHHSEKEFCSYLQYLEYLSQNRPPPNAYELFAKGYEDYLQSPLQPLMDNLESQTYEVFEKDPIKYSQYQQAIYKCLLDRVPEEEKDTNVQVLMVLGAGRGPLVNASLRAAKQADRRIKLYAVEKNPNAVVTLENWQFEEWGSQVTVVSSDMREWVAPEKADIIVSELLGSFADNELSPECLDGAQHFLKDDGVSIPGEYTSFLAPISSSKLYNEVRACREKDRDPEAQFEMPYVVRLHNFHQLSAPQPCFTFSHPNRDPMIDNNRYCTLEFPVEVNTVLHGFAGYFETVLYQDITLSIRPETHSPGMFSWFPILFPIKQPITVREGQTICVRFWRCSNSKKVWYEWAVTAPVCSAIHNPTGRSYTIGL
PRMT5/MEP50 complex, sequence (Q9BQA1 whole entry, further chain): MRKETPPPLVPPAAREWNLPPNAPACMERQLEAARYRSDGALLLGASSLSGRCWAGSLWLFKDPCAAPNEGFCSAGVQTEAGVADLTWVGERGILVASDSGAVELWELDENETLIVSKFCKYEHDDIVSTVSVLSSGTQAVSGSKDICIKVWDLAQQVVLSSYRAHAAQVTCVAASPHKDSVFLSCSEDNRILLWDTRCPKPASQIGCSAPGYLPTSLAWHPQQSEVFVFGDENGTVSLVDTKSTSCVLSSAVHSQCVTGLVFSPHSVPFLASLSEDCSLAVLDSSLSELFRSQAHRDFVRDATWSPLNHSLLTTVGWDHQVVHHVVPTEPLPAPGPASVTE
Protein arginine N-methyltransferase 6, sequence (Q96LA8 whole entry, the tested form may be a part): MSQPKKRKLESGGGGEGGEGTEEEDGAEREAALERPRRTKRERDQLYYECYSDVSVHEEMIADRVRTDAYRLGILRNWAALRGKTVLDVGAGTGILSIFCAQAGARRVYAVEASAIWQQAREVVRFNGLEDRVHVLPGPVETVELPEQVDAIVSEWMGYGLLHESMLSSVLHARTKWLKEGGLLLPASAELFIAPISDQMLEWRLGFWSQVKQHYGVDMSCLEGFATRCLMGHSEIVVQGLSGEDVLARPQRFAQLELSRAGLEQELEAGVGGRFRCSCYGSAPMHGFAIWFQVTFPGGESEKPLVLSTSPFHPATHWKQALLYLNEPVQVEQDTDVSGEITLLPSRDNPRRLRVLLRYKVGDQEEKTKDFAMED

Row | Cmax [1] [ng/mL] | half-life [3] [h] | Tmax [4] [h] | solubility [5] | AUC [6] [ng·h/mL] | IC50 (PRMT5/MEP50 complex) [µM] | IC50 [7] [µM] | IC50 [8] [µM] | IC50 [9] [µM] | IC50 [10] [µM] | GI50 (MV4-11 [11]) [µM] | IC50 [12] [µM] | GI50 (MV4-11 [13]) [µM] | IC50 [14] [µM] | SMILES | inhibition in vivo at 100 mg/kg (MV4-11 [2]) [%]
1 | 32 | 4.6 | 0.583 | Soluble | 168 |  |  |  |  |  |  |  |  |  | Cl.O=C(NC[C@H](O)CN1CCc2ccccc2C1)c1ccc2c(c1)CCN(C(=O)c1ccc(Br)cc1)C2 | 54
2 |  |  |  | Insoluble |  | 0.0085 | > 100 | > 100 | > 100 | > 100 | 0.018 | > 100 | 0.025 | > 100 | O=C(NC[C@H](O)CN1CCc2ccccc2C1)c1ccc2c(c1)CCN(C(=O)c1ccc(Br)cc1)C2 | 
